Experimental data: patent US20130065825A1, “Compositions and Methods for Delaying Senescence or Cell Death in Neurons” (NEUROTEZ, INC., priority 2011, published 2013)

Key:
[1] = system: phosphorylated tau; experiment: Tau phosphorylation in RA-SY5Y cells by immunoblot (pTau181) and ELISA (pTau231, pTau396); assay type: cell-based, human; conditions: 6 h; for effect of co-treatment on Leptin's reduction of phospho-tau: Leptin 500 ng/mL + nicotinamide 5 mM or compound C 20 μM, phospho-tau returned to control levels; for Tau396 phosphorylation compared to control: nicotinamide 5 mM or compound C 20 μM, independent of Leptin treatment, ELISA
Protocol: (§1) For neuronal differentiation, 1×10^6 SY5Y or IMR-32 cells were grown in neruonal induction medium (NIM), which is consisted of MEM containing 2% FBS supplemented with 10 μM retinoic acid (RA). Cells were incubated in NIM for 6 days, and switched to serum-free NIM prior to treatment and harvesting on day 7.
(§2) Neuronal cells were treated with Leptin (500 ng/ml) in the presence or absence of nicotinamide (5 mM) or compound C (20 μM) for 6 or 18 h, depending on readout, and then harvested by scraping. Preparation of lysates and immunoblotting were performed as described.
(§3) Aβ(1-40) levels in cell culture media were determined using the Human β-Amyloid 1-40 ELISA kit (Invitrogen; Carlsbad, Calif.), and phospho- and total tau levels in cell culture lysates were determined using the Human Tau pSer^396, pThr^231 and Total Tau ELISA kits (Invitrogen) according to manufacturer's specific instructions.
The Invitrogen Human Tau (Total) kit is a solid phase sandwich Enzyme Linked-Immuno-Sorbent Assay (ELISA). Samples, including standards of known human Tau content, control specimens, and unknowns, are pipetted into the wells of microtiter strips, which are coated with a monoclonal antibody specific for human Tau. During the first incubation, the human Tau antigen binds to the immobilized (capture) antibody on one site. After washing, a rabbit polyclonal antibody specific for human Tau is added. During the second incubation, this antibody binds to the immobilized human Tau captured during the first incubation. After removal of excess second antibody, a horseradish peroxidase (HRP)-labeled anti-rabbit antibody is added. This binds to the rabbit polyclonal antibody to complete the four-member sandwich. After a third incubation and washing to remove all the excess anti-rabbit HRP, a substrate solution is added, which is acted upon by the bound enzyme to produce color. The intensity of this colored product is directly proportional to the concentration of human Tau present in the original specimen.

[2] = system: Aβ(1-40); experiment: Aβ(1-40) in culture media of SY5Y-APP751 cells by ELISA; assay type: cell-based, human; conditions: 18 h; for effect of co-treatment on Leptin's reduction of Aβ(1-40): Leptin 500 ng/mL + nicotinamide 5 mM or compound C 20 μM, Aβ(1-40) returned to vehicle levels
Protocol: To generate SY5Y stably over-expressing amyloid precursor protein (APP), cells were transfected with a mammalian expression vector encoding the 751 amino acid isoform of human APP (APP751-Accession #NM_201413) (Origene Technologies; Rockville, Md.) using the FuGENE HD transfection reagent, according to manufacturer's specific instructions (Promega; Madison, Wis.). Briefly, cells were transiently transfected with APP751 or vehicle for 48 h and then switched into selection medium containing a concentration range of the antibiotic G418 (100-600 μg/mL) to determine the optimal dose for stable selection. Selection media was changed every 3 days to remove non-viable cells. After 3 weeks, 200 μg/mL G418 yielded distinct colonies while all vehicle-transfected cells were non-viable. Cells were maintained in 10% FBS media containing 200 μg/mL G418 for expansion.
as §2, §3
The Human β-Amyloid 1-40 ELISA kit was used for the quantitative determination of human Aβ40 in samples (e.g., tissue culture medium, tissue homogenate, cerebrospinal fluid (CSF), and the like). The assay recognizes both natural and synthetic forms of human Aβ40. The anti-human Aβ40 antibody is capable of selectively detecting Aβ40 and not Aβ42/Aβ43. The Human β-Amyloid 1-40 ELISA kit is a solid phase sandwich Enzyme Linked-Immuno-Sorbent Assay (ELISA). […] This COOH-terminal sequence is created upon cleavage of the analyzed precursor. Bound rabbit antibody then is detected by the use of a horseradish peroxidase (HRP)-labeled anti-rabbit antibody. […]

[3] = system: AMP-Activated Protein Kinase (AMPK); experiment: AMPK activity assay (CycLex AMPK Kinase Assay Kit) in lysates of RA-SY5Y cells; assay type: cell-based, human
Protocol: as §1, §2
AMP-Activated Protein Kinase (AMPK) activity in cell lysates was determined using the CycLex AMPK Kinase Assay Kit (MBL International; Woburn, Mass.), as described previously. Briefly, the term “relative AMPK activity” or “AMPK activity,” is defined as Compound C-sensitive protein kinase activity in cell lysates. Titration of various Compound C doses identified 10 μM as the dose in which there was no further reduction in kinase activity upon increasing concentration (data not shown). Neuronal cell lysates were incubated in the presence or absence of 10 μM Compound C, and protein kinase activity determined by measuring phosphorylation of the Insulin Receptor Substrate-1 (IRS-1) through immunoassay and conversion of a chromogenic substrate at an absorbance of 450 nm (A450). Normalized AMPK activity in the lysates was defined as: […]

[4] = system: Total Sirtuins; experiment: SIRT activity assay (Fluor-de-Lys HDAC Fluorimetric Cellular Activity Assay Kit) in lysates of RA-SY5Y cells; assay type: cell-based, human; conditions: 6 h
Protocol: as §1, §2
Total Sirtuins activity in cell lysates was determined using the Fluro-de-Lys® HDAC Fluorimetric Cellular Activity Assay Kit (Enzo Life Sciences; Plymouth Meeting, Pa.), according to manufacturer's specified guidelines. “SIRT activity” in this assay is defined as nicotinamide-sensitive deacetylase (class III HDAC) activity in cell lysates. […] Neuronal cell lysates were incubated in the presence or absence of 5 mM nicotinamide, and SIRT activity determined by adding the Flour-de-Lys® Substrate for deacetylation followed by exposure to the Fluor-de-Lys® Developer to generate a fluorescent signal for detection using a fluorimeter (Ex. 350-380 nm; Em. 440-460 nm). Normalized SIRT activity in the lysates was measured in units of fluorescence intensity (Fi) and defined as: […]

[5] = system: Total Sirtuins; conditions: identified by the manufacturer of the kit; cited from earlier work

## c1cc(-c2cnn3cc(-c4ccc(OCCN5CCCCC5)cc4)cnc23)ccn1 [compound C, 6-[4-(2-Piperidin-1-yl-ethoxy)-phenyl]-3-pyridin-4-yl-pyrrazolo[1,5,-α]pyrimidine]
[1]
  effect of co-treatment on Leptin's reduction of phospho-tau: negated these effects
  Tau396 phosphorylation compared to control: significantly (p<0.05) increased
[2]
  effect of co-treatment on Leptin's reduction of Aβ(1-40): reversed these effects
[3]; RA-SY5Y cells, Leptin 500 ng/mL + compound C 20 μM, 6 h, to levels similar to non-treated control
  AMPK activity on co-treatment with Leptin: significantly (p<0.05) reduced AMPK activity
[3]; titration in cell lysates, data not shown
  dose with no further reduction in kinase activity upon increasing concentration: 10 µM

## NC(=O)c1cccnc1 [nicotinamide]
[1]
  effect of co-treatment on Leptin's reduction of phospho-tau: negated these effects
  Tau396 phosphorylation compared to control: significantly (p<0.05) increased
[4]; Leptin 500 ng/mL + nicotinamide 5 mM, to levels similar to non-treated control
  SIRT activity on co-treatment with Leptin: significantly (p<0.05) reduced SIRT activity
[2]
  effect of co-treatment on Leptin's reduction of Aβ(1-40): reversed these effects
[5]
  dose with no further reduction in deacetylase activity upon increasing concentration: 5 mM

## Leptin: recombinant human Leptin purchased from Sigma-Aldrich; pleiotropic hormone primarily secreted by adipocytes
[1]; Leptin 500 ng/mL, no SIRT or AMPK inhibition, normalized to total tau, n=3
  all examined phospho-tau species (pTau181, pTau231, pTau396): significant (p<0.05) reduction
[4]; Leptin 500 ng/mL, normalized to total protein, n=3, p<0.05
  increase in total SIRT deacetylase activity vs cells treated without Leptin: approximately 2.5 fold
[2]; Leptin 500 ng/mL, no inhibitors, normalized to total protein, n=3
  Aβ(1-40) in culture media: significant (p<0.05) reduction
[3]; RA-SY5Y cells, Leptin 500 ng/mL, 6 h, normalized to total protein, n=3, p<0.05
  increase in AMPK kinase activity vs cells treated without Leptin: approximately 2 fold
